Tests used:
LIPA-α-syn aggregates = test: Stability of LIPA-α-syn inclusions after light stimulation (proportion of mCherry-positive cells with inclusions); format: cell-based, human; conditions: for reduction in the number of cells exhibiting stable LIPA-α-syn inclusions / effect on the proportion of cells with mCherry inclusions: HEK-293T cells overexpressing LIPA-α-syn; for reduction in the number of cells exhibiting stable LIPA-α-syn inclusions: 12 h pre-exposure to blue light, treatment with small molecule inhibitor, FIG. 16, n=5; for effect on the proportion of cells with mCherry inclusions: treatment with inactive small molecules, FIG. 18, n=5
Protocol: HEK-293T cells were seeded on 0.1% gelatin-coated glass coverslips in 24-well plates at a density of 10^4 cells per well (50% confluence) and transiently transfected, 24 h later, with 0.5 μg of LIPA-Empty, 0.6 μg LIPA-α-syn, and 1 μg LIPA-α-syn^ΔNAC per 4 wells, to obtain similar protein expression levels in all conditions. 24 h post-transfection, cells were exposed to blue light (λ=456 nm) using UHP-T-DI-LED series Ultra High-Power LEDs (Prizmatix), at an intensity of 0.8 mW/cm^2, as measured using LPM-100 light power meter (Amuza). Cells were collected at different time points and fixed in 4% paraformaldehyde for 15 min at room temperature (RT), then washed three times (5 min) with PBS and permeabilized with PBS containing 0.25% Triton X-100, for 30 min at RT. Cells were incubated in blocking buffer solution (PBS containing 5% BSA and 0.1% Triton X-100), for 1 h at RT. Coverslips were incubated with primary antibodies (see Table 1) diluted in blocking buffer solution for 2 h at RT. Coverslips were washed three times in blocking buffer solution (10 min) and appropriate Alexa Fluor® secondary antibodies (Life Technologies, see Table 1) were applied for 1 h at RT. Coverslips were washed twice with PBS (10 min) and counterstained with the fluorescent nuclear stain […] 4,6-diamidino-2-phenylindole (DAPI) (1:5000) for 5 min. Coverslips were then washed twice with PBS (10 min), mounted on Prolong® Gold Antifade (Molecular Probes), and imaged using a Zeiss LSM800 confocal microscope. For thioflavin S (ThS) staining, fixed and permeabilized cells were incubated with 0.05% ThS for 15 min, washed three times with 70% ethanol for 10 min, and then cells were directly counterstained with DAPI. All immunocytochemistry experiments were made with gentle rocking and protected from light.
(§1) To evaluate the number of mCherry-positive cells with aggregates, a total of 8-10 images per condition were collected using a fluorescence microscope (Nikon Eclipse 80i; 20× objective) and a total of 220-250 cells were quantified by two experimenters, in a blind manner, using ImageJ.
The stability of LIPA-α-syn inclusions in the absence of light stimulation was evaluated by assessing the proportion of mCherry-positive cells having inclusions. LIPA aggregates were allowed to form over a 12 h period under light stimulation and cells were collected at different time points up to 48 h post-illumination (FIG. 14).
The impact of treatment with potent small molecule inhibitors of α-syn aggregation, namely baicalein and myrecitin (Masuda et al., 2006; Zhu et al., 2004), on the stability of LIPA-α-syn inclusions was next evaluated. […] Treatment with baicalein or myrecitin had no effect on LIPA-Empty dissociation, confirming the specificity of these inhibitors (FIG. 17).
Previous studies have reported that both β-synuclein (β-syn) and mouse α-syn (ma-syn) overexpression inhibit human α-syn aggregation in cell culture and animal models. To test the impact of these two proteins on LIPA-α-syn inclusion formation, LIPA-α-syn was overexpressed with β-syn or ma-syn in HEK-293T cells, then transiently exposed to blue light for 12 h.

LIPA-Empty aggregates = biological target: T1, LIPA-Empty aggregates (Arabidopsis thaliana, UniProt Q96524, E490G); test: Stability/dissociation of LIPA-Empty inclusions after light stimulation (proportion of mCherry-positive cells with inclusions); format: cell-based, human; conditions: HEK-293T cells overexpressing LIPA-Empty, 12 h pre-exposure to blue light, FIG. 17, n=5
T1 construct: expressed in transfected cells; host or cells: HEK-293T
Protocol: HEK-293T cells were seeded on 0.1% gelatin-coated glass coverslips in 24-well plates at a density of 10^4 cells per well (50% confluence) and transiently transfected, 24 h later, with 0.5 μg of LIPA-Empty, 0.6 μg LIPA-α-syn, and 1 μg LIPA-α-syn^ΔNAC per 4 wells, to obtain similar protein expression levels in all conditions. 24 h post-transfection, cells were exposed to blue light (λ=456 nm) using UHP-T-DI-LED series Ultra High-Power LEDs (Prizmatix), at an intensity of 0.8 mW/cm^2, as measured using LPM-100 light power meter (Amuza). […]
as §1
The stability of LIPA-α-syn inclusions in the absence of light stimulation was evaluated by assessing the proportion of mCherry-positive cells having inclusions. […]
The impact of treatment with potent small molecule inhibitors of α-syn aggregation, namely baicalein and myrecitin (Masuda et al., 2006; Zhu et al., 2004), on the stability of LIPA-α-syn inclusions was next evaluated. […]

T1 sequence (Q96524 1-498 E490G): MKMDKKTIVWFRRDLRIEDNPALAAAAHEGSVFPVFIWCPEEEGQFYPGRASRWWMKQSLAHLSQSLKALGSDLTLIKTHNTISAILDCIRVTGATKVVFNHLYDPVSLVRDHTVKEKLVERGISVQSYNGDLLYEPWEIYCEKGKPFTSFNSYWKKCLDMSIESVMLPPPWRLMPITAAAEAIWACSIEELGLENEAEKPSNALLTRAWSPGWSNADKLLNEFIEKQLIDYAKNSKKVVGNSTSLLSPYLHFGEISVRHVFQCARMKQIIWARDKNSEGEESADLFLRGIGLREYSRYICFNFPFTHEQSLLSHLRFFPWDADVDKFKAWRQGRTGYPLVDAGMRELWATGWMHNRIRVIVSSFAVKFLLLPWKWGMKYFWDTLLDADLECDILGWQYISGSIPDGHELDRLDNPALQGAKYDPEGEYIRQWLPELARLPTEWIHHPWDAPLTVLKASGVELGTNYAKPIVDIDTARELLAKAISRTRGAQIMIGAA

For “β-syn: β-synuclein overexpressed in cells; reported to inhibit human α-syn aggregation”, the “reduction of the proportion of cells exhibiting mCherry aggregates (LIPA-α-syn inclusions)” value (LIPA-α-syn aggregates; co-overexpression with LIPA-α-syn in HEK-293T cells, blue light 12 h, post-stimulation analysis, FIG. 19 and 21, n=5) was “significant reduction”.
`O=c1c(O)c(-c2cc(O)c(O)c(O)c2)oc2cc(O)cc(O)c12` [myrecitin] was tested, and the “reduction in the number of cells exhibiting stable LIPA-α-syn inclusions” value (LIPA-α-syn aggregates) was 50% and the “effect on LIPA-Empty dissociation” value (LIPA-Empty aggregates) was “no effect”.
`O=C1C[C@@H](c2ccc(O)cc2)Oc2cc(O)cc(O)c21` [naringenin] was tested, and the “effect on the proportion of cells with mCherry inclusions” value (LIPA-α-syn aggregates) was “did not affect”.
With `O=c1cc(-c2ccccc2)oc2cc(O)c(O)c(O)c12` [baicalein] the “reduction in the number of cells exhibiting stable LIPA-α-syn inclusions” value (LIPA-α-syn aggregates) was 50% and the “effect on LIPA-Empty dissociation” value (LIPA-Empty aggregates) was “no effect”.
In the case of `O=c1c(-c2ccc(O)cc2)coc2cc(O)ccc12` [daidzein], the “effect on the proportion of cells with mCherry inclusions” value (LIPA-α-syn aggregates) was “did not affect”.

From patent US11939362B2, “Light-inducible protein aggregation system for modeling proteinopathies and neurodegenerative disorders” (UNIVERSITÉ LAVAL, priority 2018, dated 2024)
